Measurements taken from US20240398828A1, “HETERO-ATOM CONTAINING COMPOUNDS AND USES THEREOF” (Kumquat Biosciences Inc., priority 2021, published 2024).

Experiments:
[1] = biological target: T1, PTPN2 (i.e., TC-PTP) (Homo sapiens, UniProt P17706); experiment: Phosphatase activity assay (DiFMUP substrate), PTPN2; assay type: biochemical; conditions: compounds binned ≤1 uM or >1 uM
T1 sequence (P17706 1-415): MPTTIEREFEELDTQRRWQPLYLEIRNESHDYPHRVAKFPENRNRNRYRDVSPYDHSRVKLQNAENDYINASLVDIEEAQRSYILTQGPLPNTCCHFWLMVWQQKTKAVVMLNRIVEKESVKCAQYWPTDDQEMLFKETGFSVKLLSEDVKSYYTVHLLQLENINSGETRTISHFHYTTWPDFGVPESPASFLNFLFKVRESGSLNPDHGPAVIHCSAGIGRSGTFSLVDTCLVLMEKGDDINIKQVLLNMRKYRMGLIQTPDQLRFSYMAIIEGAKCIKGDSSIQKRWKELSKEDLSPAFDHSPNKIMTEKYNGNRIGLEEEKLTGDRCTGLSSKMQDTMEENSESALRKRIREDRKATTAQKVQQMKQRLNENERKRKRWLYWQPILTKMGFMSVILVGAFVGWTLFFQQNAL
Summary of the method: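 Using a Km-level DiFMUP substrate and 0.025 ng/ul PTPN2, phosphatase activity is tracked by DiFMU emission at 450 nm over about 15–30 minutes. Initial rates at ten inhibitor concentrations give IC50 by four-parameter fitting.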

[2] = biological target: T2, PTPN1 (i.e., PTP1B) (Homo sapiens, UniProt P18031); experiment: Phosphatase activity assay (DiFMUP substrate), PTP1B; assay type: biochemical; conditions: compounds binned ≤1 uM or >1 uM
T2 sequence (P18031 1-435): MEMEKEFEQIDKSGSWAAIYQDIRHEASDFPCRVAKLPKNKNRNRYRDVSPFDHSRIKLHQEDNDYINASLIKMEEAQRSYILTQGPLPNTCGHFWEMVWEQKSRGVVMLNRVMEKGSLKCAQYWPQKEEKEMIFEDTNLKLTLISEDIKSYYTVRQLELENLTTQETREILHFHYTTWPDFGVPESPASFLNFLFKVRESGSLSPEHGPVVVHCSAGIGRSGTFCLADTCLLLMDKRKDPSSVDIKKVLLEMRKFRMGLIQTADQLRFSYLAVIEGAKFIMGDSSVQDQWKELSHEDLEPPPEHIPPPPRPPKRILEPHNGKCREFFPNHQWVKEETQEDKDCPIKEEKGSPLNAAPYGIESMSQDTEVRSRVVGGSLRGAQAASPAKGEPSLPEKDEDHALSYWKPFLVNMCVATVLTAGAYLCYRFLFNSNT
Summary of the method: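 Enzyme (e.g. PTPN2 0.025 ng/ul) mixed about 2 min with compound at 10 serial concentrations in 50 mM HEPES pH 7.5, 150 mM NaCl, 0.5 mM EDTA, 1 mM DTT, 0.001% Tween-20 at room temperature. DiFMUP added at each enzyme's Km (about 45 μM for PTPN2). DiFMU fluorescence (ex 360/em 450 nm) followed 15-30 min; IC50 from 4-parameter fit of rates.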

| Compound | IC50 [1] [nM] | IC50 [2] [nM] |
| --- | --- | --- |
| O=C1CN(c2c(O)ccc(-c3cnn(C4CN(C5CC5)C4)c3)c2F)S(=O)(=O)N1 [Compound 275, 5-(3-(1-(1-cyclopropylazetidin-3-yl)-1H-pyrazol-4-yl)-2-fluoro-6-hydroxyphenyl)-1,2,5-thiadiazolidin-3-one 1,1-dioxide] | ≤ 1000 | ≤ 1000 |
| CCCN1CCCC(c2ccc(O)c(N3CC(=O)NS3(=O)=O)c2F)C1 (stereo not drawn) [Compound 276, 5-(2-fluoro-6-hydroxy-3-(1-propylpiperidin-3-yl)phenyl)-1,2,5-thiadiazolidin-3-one 1,1-dioxide] | > 1000 | ≤ 1000 |
| O=C1C=C(c2c(O)ccc(-c3cn(CC4CCCCC4)cn3)c2F)S(=O)(=O)N1 [Compound 277, 5-(3-(1-(cyclohexylmethyl)-1H-imidazol-4-yl)-2-fluoro-6-hydroxyphenyl)isothiazol-3(2H)-one 1,1-dioxide] | ≤ 1000 | ≤ 1000 |
| Cn1nc(C2CC2)cc1-c1ccc(O)c(N2CC(=O)NS2(=O)=O)c1F [Compound 278, 5-(3-(3-cyclopropyl-1-methyl-1H-pyrazol-5-yl)-2-fluoro-6-hydroxyphenyl)-1,2,5-thiadiazolidin-3-one 1,1-dioxide] | ≤ 1000 | ≤ 1000 |
| CC1(N)CCN(c2cc(-c3ccc(O)c(N4CC(=O)NS4(=O)=O)c3F)[nH]n2)C1 (stereo not drawn) [Compound 279, 5-(3-(3-(3-amino-3-methylpyrrolidin-1-yl)-1H-pyrazol-5-yl)-2-fluoro-6-hydroxyphenyl)-1,2,5-thiadiazolidin-3-one 1,1-dioxide] | ≤ 1000 | ≤ 1000 |
| N#C[C@H]1CC[C@@H](n2cc(-c3ccc(O)c(N4CC(=O)NS4(=O)=O)c3F)cn2)CC1 [Compound 280, (1s,4s)-4-(4-(3-(1,1-dioxido-4-oxo-1,2,5-thiadiazolidin-2-yl)-2-fluoro-4-hydroxyphenyl)-1H-pyrazol-1-yl)cyclohexane-1-carbonitrile] | ≤ 1000 | ≤ 1000 |
| O=C1CN(c2c(O)ccc(-c3cc(C4CCC4)n[nH]3)c2F)S(=O)(=O)N1 [Compound 281, 5-(3-(3-cyclobutyl-1H-pyrazol-5-yl)-2-fluoro-6-hydroxyphenyl)-1,2,5-thiadiazolidin-3-one 1,1-dioxide] | ≤ 1000 | ≤ 1000 |
| CC1C=C(c2ccc(O)c(N3CC(=O)NS3(=O)=O)c2F)CN1 (stereo not drawn) [Compound 282, 5-(2-fluoro-6-hydroxy-3-(5-methyl-2,5-dihydro-1H-pyrrol-3-yl)phenyl)-1,2,5-thiadiazolidin-3-one 1,1-dioxide] | ≤ 1000 | ≤ 1000 |
| Cc1cc(-c2ccc(O)c(N3CC(=O)NS3(=O)=O)c2F)sn1 [Compound 283, 5-(2-fluoro-6-hydroxy-3-(3-methylisothiazol-5-yl)phenyl)-1,2,5-thiadiazolidin-3-one 1,1-dioxide] | ≤ 1000 | ≤ 1000 |
| Cc1cc(-c2ccc(O)c(N3CC(=O)NS3(=O)=O)c2F)n(C)n1 [Compound 284, 5-(3-(1,3-dimethyl-1H-pyrazol-5-yl)-2-fluoro-6-hydroxyphenyl)-1,2,5-thiadiazolidin-3-one 1,1-dioxide] | ≤ 1000 | ≤ 1000 |
| O=C1CN(c2c(O)ccc(C3CCN(S(=O)(=O)C4CC4)CC3)c2F)S(=O)(=O)N1 [Compound 285, 5-(3-(1-(cyclopropylsulfonyl)piperidin-4-yl)-2-fluoro-6-hydroxyphenyl)-1,2,5-thiadiazolidin-3-one 1,1-dioxide] | ≤ 1000 | ≤ 1000 |
| O=C1CN(c2c(O)ccc(-c3cc(N4CCOCC4)n[nH]3)c2F)S(=O)(=O)N1 [Compound 286, 5-(2-fluoro-6-hydroxy-3-(3-morpholino-1H-pyrazol-5-yl)phenyl)-1,2,5-thiadiazolidin-3-one 1,1-dioxide] | ≤ 1000 | ≤ 1000 |
| N#Cc1ccc(-n2cnc(-c3ccc(O)c(N4CC(=O)NS4(=O)=O)c3F)c2)cc1F [Compound 287, 4-(4-(3-(1,1-dioxido-4-oxo-1,2,5-thiadiazolidin-2-yl)-2-fluoro-4-hydroxyphenyl)-1H-imidazol-1-yl)-2-fluorobenzonitrile] | ≤ 1000 | ≤ 1000 |
| CC(C)CNCc1cc(-c2ccc(O)c(N3CC(=O)NS3(=O)=O)c2F)nn1C [Compound 288, 5-(2-fluoro-6-hydroxy-3-(5-((isobutylamino)methyl)-1-methyl-1H-pyrazol-3-yl)phenyl)-1,2,5-thiadiazolidin-3-one 1,1-dioxide] | ≤ 1000 | ≤ 1000 |
| O=C1CN(c2c(O)ccc(-c3cn(-c4ccc(F)c(F)c4)cn3)c2F)S(=O)(=O)N1 [Compound 289, 5-(3-(1-(3,4-difluorophenyl)-1H-imidazol-4-yl)-2-fluoro-6-hydroxyphenyl)-1,2,5-thiadiazolidin-3-one 1,1-dioxide] | ≤ 1000 | ≤ 1000 |
| CC(C)CCCc1cc(-c2ccc(O)c(N3CC(=O)NS3(=O)=O)c2F)[nH]n1 [Compound 290, 5-(2-fluoro-6-hydroxy-3-(3-(4-methylpentyl)-1H-pyrazol-5-yl)phenyl)-1,2,5-thiadiazolidin-3-one 1,1-dioxide] | ≤ 1000 | ≤ 1000 |
| O=C1CN(c2c(O)ccc(C3=CCOC3)c2F)S(=O)(=O)N1 [Compound 291, 5-(3-(2,5-dihydrofuran-3-yl)-2-fluoro-6-hydroxyphenyl)-1,2,5-thiadiazolidin-3-one 1,1-dioxide] | ≤ 1000 | ≤ 1000 |
| O=C1CN(c2c(O)ccc(-c3ccc(NS(=O)(=O)C4CC4)cc3)c2F)S(=O)(=O)N1 [Compound 292, N-(3′-(1,1-dioxido-4-oxo-1,2,5-thiadiazolidin-2-yl)-2′-fluoro-4′-hydroxy-[1,1′-biphenyl]-4-yl)cyclopropanesulfonamide] | ≤ 1000 | ≤ 1000 |
| CC(C)(C)n1cc(-c2ccc(O)c(N3CC(=O)NS3(=O)=O)c2F)cn1 [Compound 293, 5-(3-(1-(tert-butyl)-1H-pyrazol-4-yl)-2-fluoro-6-hydroxyphenyl)-1,2,5-thiadiazolidin-3-one 1,1-dioxide] | ≤ 1000 | ≤ 1000 |
| O=C1CN(c2c(O)ccc(C3=CCSCC3)c2F)S(=O)(=O)N1 [Compound 294, 5-(3-(3,6-dihydro-2H-thiopyran-4-yl)-2-fluoro-6-hydroxyphenyl)-1,2,5-thiadiazolidin-3-one 1,1-dioxide] | ≤ 1000 | ≤ 1000 |
| O=C1CN(c2c(O)ccc(-c3cnn(CC4CC5CCC(C4)N5C(=O)C4CC4)c3)c2F)S(=O)(=O)N1 (stereo not drawn) [Compound 295, 5-(3-(1-((8-(cyclopropanecarbonyl)-8-azabicyclo[3.2.1]octan-3-yl)methyl)-1H-pyrazol-4-yl)-2-fluoro-6-hydroxyphenyl)-1,2,5-thiadiazolidin-3-one 1,1-dioxide] | ≤ 1000 | ≤ 1000 |
| O=C1CN(c2c(O)ccc(C3=CCN(C4CC4)C3)c2F)S(=O)(=O)N1 [Compound 296, 5-(3-(1-cyclopropyl-2,5-dihydro-1H-pyrrol-3-yl)-2-fluoro-6-hydroxyphenyl)-1,2,5-thiadiazolidin-3-one 1,1-dioxide] | ≤ 1000 | ≤ 1000 |
| CC(N)c1cc(-c2ccc(O)c(N3CC(=O)NS3(=O)=O)c2F)[nH]n1 (stereo not drawn) [Compound 297, 5-(3-(3-(1-aminoethyl)-1H-pyrazol-5-yl)-2-fluoro-6-hydroxyphenyl)-1,2,5-thiadiazolidin-3-one 1,1-dioxide] | ≤ 1000 | ≤ 1000 |
| N#Cc1ccccc1-n1cnc(-c2ccc(O)c(N3CC(=O)NS3(=O)=O)c2F)c1 [Compound 298, 2-(4-(3-(1,1-dioxido-4-oxo-1,2,5-thiadiazolidin-2-yl)-2-fluoro-4-hydroxyphenyl)-1H-imidazol-1-yl)benzonitrile] | ≤ 1000 | ≤ 1000 |
| Cc1cn(-c2ccc(O)c(N3CC(=O)NS3(=O)=O)c2F)nc1O [Compound 299, 5-(2-fluoro-6-hydroxy-3-(3-hydroxy-4-methyl-1H-pyrazol-1-yl)phenyl)-1,2,5-thiadiazolidin-3-one 1,1-dioxide] | ≤ 1000 | ≤ 1000 |
| CN(C)c1cc(-c2ccc(O)c(N3CC(=O)NS3(=O)=O)c2F)[nH]n1 [Compound 300, 5-(3-(3-(dimethylamino)-1H-pyrazol-5-yl)-2-fluoro-6-hydroxyphenyl)-1,2,5-thiadiazolidin-3-one 1,1-dioxide] | ≤ 1000 | ≤ 1000 |
| CN(C)C1CC=C(c2ccc(O)c(N3CC(=O)NS3(=O)=O)c2F)C1 (stereo not drawn) [Compound 301, 5-(3-(4-(dimethylamino)cyclopent-1-en-1-yl)-2-fluoro-6-hydroxyphenyl)-1,2,5-thiadiazolidin-3-one 1,1-dioxide] | ≤ 1000 | ≤ 1000 |
